Measured values published in patent US9555039B2, “Piperidine derivatives and compositions for the inhibition of nicotinamide phosphoribosyltransferase (NAMPT)” (Forma TM, LLC., priority 2011, dated 2017).
Where two headings read alike, the source gives them in different places.

Legend:
[1] = target: T1, Recombinant His-tagged NAMPT (Homo sapiens, UniProt P43490); test: Biochemical inhibition assay: NAMPT enzymatic reaction, NMN quantified by mass spectrometry; conditions: 33 nM NAMPT, 1 μM NAM, 100 μM PRPP, 30 minutes at room temperature, read-out: Biochem IC50
T1 construct: His; host or cells: E. coli
Outline: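 Reaction 30 min at room temperature with 1 μM NAM, 100 μM PRPP, 2.5 mM ATP (final), quenched with formic acid. NMN quantified by RapidFire electrospray MS, normalized to L-cystathionine; IC50 from percent inhibition versus DMSO.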

[2] = tested on: A2780 cells; test: In-vitro cell proliferation assay (SRB, 72 hours); format: cell-based; conditions: sulforhodamine B (SRB) assay
Outline: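 Background from media-only plate subtracted; inhibition relative to DMSO-treated cells, value derived by interpolation between two concentrations.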

T1 sequence (P43490 whole entry): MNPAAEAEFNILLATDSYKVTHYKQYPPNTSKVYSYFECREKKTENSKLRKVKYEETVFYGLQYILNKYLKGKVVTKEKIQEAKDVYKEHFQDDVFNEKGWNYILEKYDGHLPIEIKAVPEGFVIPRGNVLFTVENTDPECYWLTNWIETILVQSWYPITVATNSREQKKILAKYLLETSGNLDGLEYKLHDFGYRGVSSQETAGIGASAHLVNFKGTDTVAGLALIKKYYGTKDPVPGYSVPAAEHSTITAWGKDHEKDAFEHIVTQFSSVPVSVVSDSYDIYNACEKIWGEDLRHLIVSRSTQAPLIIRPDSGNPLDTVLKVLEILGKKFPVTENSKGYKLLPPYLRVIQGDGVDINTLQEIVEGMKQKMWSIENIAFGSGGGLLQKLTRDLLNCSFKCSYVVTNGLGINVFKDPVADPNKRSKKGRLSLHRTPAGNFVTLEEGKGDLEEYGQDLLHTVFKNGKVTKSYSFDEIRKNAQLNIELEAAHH

## O=C(NCCCCC1CCN(C(=O)c2cccnc2)CC1)c1cc2cnccc2[nH]1 [N-(4-{1-[(pyridin-3-yl)carbonyl]piperidin-4-yl}butyl)-1H-pyrrolo[3,2-c]pyridine-2-carboxamide]
[1]; 2.5 mM ATP
  IC50: 0.0986 µM
[2]; Homo sapiens
  IC50: 0.0231 µM

## O=C(NCCCCC1CCN(C(=O)c2cccnc2)CC1)c1ccc2nccn2c1 [N-(4-{1-[(pyridin-3-yl)carbonyl]piperidin-4-yl}butyl)imidazo[1,2-a]pyridine-6-carboxamide]
[1]; 2.5 mM ATP
  IC50: 0.0127 µM
[2]; Homo sapiens
  IC50: 0.0274 µM

## O=C(NCCCCC1CCN(C(=O)c2cccnc2)CC1)c1cc2ccncc2s1 [N-(4-{1-[(pyridin-3-yl)carbonyl]piperidin-4-yl}butyl)thieno[2,3-c]pyridine-2-carboxamide]
[1]; 2.5 mM ATP
  IC50: 0.0111 µM
[2]; Homo sapiens
  IC50: 0.0274 µM

## O=C(NCCCCC1CCN(C(=O)c2ccncc2)CC1)c1cc2cnccc2[nH]1 [N-(4-{1-[(pyridin-4-yl)carbonyl]piperidin-4-yl}butyl)-1H-pyrrolo[3,2-c]pyridine-2-carboxamide]
[1]; 2.5 mM ATP
  IC50: 0.0097 µM
[2]; Homo sapiens
  IC50: 0.0044 µM

## O=C(NCCCCN1CCN(C(=O)c2cccc(Cl)c2)CC1)c1cc2cnccc2[nH]1 [N-(4-{4-[(3-chlorophenyl)carbonyl]piperazin-1-yl}butyl)-1H-pyrrolo[3,2-c]pyridine-2-carboxamide]
[1]; 2.5 mM ATP
  IC50: 0.106 µM
[2]; Homo sapiens
  IC50: 0.347 µM

## COc1cccc(C(=O)N2CCN(CCCCNC(=O)c3cc4cnccc4[nH]3)CC2)c1 [N-(4-{4-[(3-methoxyphenyl)carbonyl]piperazin-1-yl}butyl)-1H-pyrrolo[3,2-c]pyridine-2-carboxamide]
[1]; 2.5 mM ATP
  IC50: 0.436 µM
[2]; Homo sapiens
  IC50: 0.855 µM

## O=C(NCCC1CCN(C(=O)c2ccccc2)CC1)c1cc2cnccc2[nH]1 [N-[2-(1-benzoylpiperidin-4-yl)ethyl]-1H-pyrrolo[3,2-c]pyridine-2-carboxamide]
[1]; 2.5 mM ATP
  IC50: 10 µM
[2]; Homo sapiens
  IC50: 20 µM

## O=C(NCCc1ccc(-c2ccccc2)cc1)c1cc2cnccc2[nH]1 [N-[2-(4-phenylphenyl)ethyl]-1H-pyrrolo[3,2-c]pyridine-2-carboxamide]
[1]; 2.5 mM ATP
  IC50: 0.126 µM
[2]; Homo sapiens
  IC50: 3.98 µM

## O=C(NCCCCC1CCN(C(=O)c2ccccc2)CC1)c1cc2cnccc2[nH]1 [N-[4-(1-benzoylpiperidin-4-yl)butyl]-1H-pyrrolo[3,2-c]pyridine-2-carboxamide]
[1]; 2.5 mM ATP
  IC50: 0.0081 µM
[2]; Homo sapiens
  IC50: 0.0014 µM

## O=C(NCCCCC1CCN(C(=O)c2ccccc2)CC1)c1ccc2nccn2c1 [N-[4-(1-benzoylpiperidin-4-yl)butyl]imidazo[1,2-a]pyridine-6-carboxamide]
[1]; 2.5 mM ATP
  IC50: 0.0055 µM
[2]; Homo sapiens
  IC50: 0.0057 µM

## O=C(NCCCCC1CCN(C(=O)c2ccccc2)CC1)c1cc2ccncc2s1 [N-[4-(1-benzoylpiperidin-4-yl)butyl]thieno[2,3-c]pyridine-2-carboxamide]
[1]; […] ATP
  IC50: 0.0063 µM
[2]; Homo sapiens
  IC50: 0.0012 µM

## O=C(NCCCCC1CCN(C(=O)C2CCCCC2)CC1)c1cc2cnccc2[nH]1 [N-[4-(1-cyclohexanecarbonylpiperidin-4-yl)butyl]-1H-pyrrolo[3,2-c]pyridine-2-carboxamide]
[1]; 2.5 mM ATP
  IC50: 0.18 µM
[2]; Homo sapiens
  IC50: 0.0155 µM

## O=C(NCCCCC1CCN(C(=O)C2CCCCC2)CC1)c1ccc2nccn2c1 [N-[4-(1-cyclohexanecarbonylpiperidin-4-yl)butyl]imidazo[1,2-a]pyridine-6-carboxamide]
[1]; 2.5 mM ATP
  IC50: 0.0181 µM
[2]; Homo sapiens
  IC50: 0.0009 µM

## O=C(NCCCCC1CCN(C(=O)C2CCCCC2)CC1)c1cc2ccncc2s1 [N-[4-(1-cyclohexanecarbonylpiperidin-4-yl)butyl]thieno[2,3-c]pyridine-2-carboxamide]
[1]; 2.5 mM ATP
  IC50: 0.0779 µM
[2]; Homo sapiens
  IC50: 0.0727 µM

## CSc1ncccc1C(=O)N1CCC(CCCCNC(=O)c2cc3cnccc3[nH]2)CC1 [N-[4-(1-{[2-(methylsulfanyl)pyridin-3-yl]carbonyl}piperidin-4-yl)butyl]-1H-pyrrolo[3,2-c]pyridine-2-carboxamide]
[1]; 2.5 mM ATP
  IC50: 0.0083 µM
[2]; Homo sapiens
  IC50: 0.0007 µM

## CSc1ncccc1C(=O)N1CCC(CCCCNC(=O)c2ccc3nccn3c2)CC1 [N-[4-(1-{[2-(methylsulfanyl)pyridin-3-yl]carbonyl}piperidin-4-yl)butyl]imidazo[1,2-a]pyridine-6-carboxamide]
[1]; 2.5 mM ATP
  IC50: 0.0055 µM
[2]; Homo sapiens
  IC50: 0.0007 µM

## CSc1ncccc1C(=O)N1CCC(CCCCNC(=O)c2cc3ccncc3s2)CC1 [N-[4-(1-{[2-(methylsulfanyl)pyridin-3-yl]carbonyl}piperidin-4-yl)butyl]thieno[2,3-c]pyridine-2-carboxamide]
[1]; 2.5 mM ATP
  IC50: 0.0101 µM
[2]; Homo sapiens
  IC50: 0.0014 µM

## O=C(NCCCCC1CCN(C(=O)c2csc(-c3cccnc3)n2)CC1)c1cc2cnccc2[nH]1 [N-[4-(1-{[2-(pyridin-3-yl)-1,3-thiazol-4-yl]carbonyl}piperidin-4-yl)butyl]-1H-pyrrolo[3,2-c]pyridine-2-carboxamide]
[1]; 2.5 mM ATP
  IC50: 0.0811 µM
[2]; Homo sapiens
  IC50: 0.0149 µM

## O=C(NCCCCC1CCN(C(=O)c2csc(-c3cccnc3)n2)CC1)c1ccc2nccn2c1 [N-[4-(1-{[2-(pyridin-3-yl)-1,3-thiazol-4-yl]carbonyl}piperidin-4-yl)butyl]imidazo[1,2-a]pyridine-6-carboxamide]
[1]; 2.5 mM ATP
  IC50: 0.0611 µM
[2]; Homo sapiens
  IC50: 0.067 µM

## O=C(NCCCCC1CCN(C(=O)c2csc(-c3cccnc3)n2)CC1)c1cc2ccncc2s1 [N-[4-(1-{[2-(pyridin-3-yl)-1,3-thiazol-4-yl]carbonyl}piperidin-4-yl)butyl]thieno[2,3-c]pyridine-2-carboxamide]
[1]; 2.5 mM ATP
  IC50: 0.0706 µM
[2]; Homo sapiens
  IC50: 0.0853 µM

## O=C(NCCCCC1CCN(S(=O)(=O)c2ccccc2OC(F)(F)F)CC1)c1cc2cnccc2[nH]1 [N-[4-(1-{[2-(trifluoromethoxy)benzene]sulfonyl}piperidin-4-yl)butyl]-1H-pyrrolo[3,2-c]pyridine-2-carboxamide]
[1]; […] ATP
  IC50: 0.0226 µM
[2]
  IC50: 0.0033 µM

## O=C(NCCCCC1CCN(C(=O)c2ccccc2OC(F)(F)F)CC1)c1cc2cnccc2[nH]1 [N-[4-(1-{[2-(trifluoromethoxy)phenyl]carbonyl}piperidin-4-yl)butyl]-1H-pyrrolo[3,2-c]pyridine-2-carboxamide]
[1]; 2.5 mM ATP
  IC50: 0.0205 µM
[2]; Homo sapiens
  IC50: 0.0013 µM

## O=C(NCCCCC1CCN(C(=O)c2ccccc2OC(F)(F)F)CC1)c1ccc2nccn2c1 [N-[4-(1-{[2-(trifluoromethoxy)phenyl]carbonyl}piperidin-4-yl)butyl]imidazo[1,2-a]pyridine-6-carboxamide]
[1]; 2.5 mM ATP
  IC50: 0.0025 µM
[2]; Homo sapiens
  IC50: 0.0019 µM

## O=C(NCCCCC1CCN(C(=O)c2ccccc2OC(F)(F)F)CC1)c1cc2ccncc2s1 [N-[4-(1-{[2-(trifluoromethoxy)phenyl]carbonyl}piperidin-4-yl)butyl]thieno[2,3-c]pyridine-2-carboxamide]
[1]; 2.5 mM ATP
  IC50: 0.0104 µM
[2]; Homo sapiens
  IC50: 0.0031 µM

## O=C(NCCCCC1CCN(C(=O)c2csc(C(F)(F)F)n2)CC1)c1ccc2nccn2c1 [N-[4-(1-{[2-(trifluoromethyl)-1,3-thiazol-4-yl]carbonyl}piperidin-4-yl)butyl]imidazo[1,2-a]pyridine-6-carboxamide]
[1]; 2.5 mM ATP
  IC50: 0.0743 µM
[2]; Homo sapiens
  IC50: 0.074 µM

## O=C(NCCCCC1CCN(C(=O)c2csc(C(F)(F)F)n2)CC1)c1cc2ccncc2s1 [N-[4-(1-{[2-(trifluoromethyl)-1,3-thiazol-4-yl]carbonyl}piperidin-4-yl)butyl]thieno[2,3-c]pyridine-2-carboxamide]
[1]; 2.5 mM ATP
  IC50: 0.094 µM
[2]; Homo sapiens
  IC50: 0.1 to 1 µM

## O=C(NCCCCC1CCN(C(=O)c2cnc(C(F)(F)F)nc2)CC1)c1cc2cnccc2[nH]1 [N-[4-(1-{[2-(trifluoromethyl)pyrimidin-5-yl]carbonyl}piperidin-4-yl)butyl]-1H-pyrrolo[3,2-c]pyridine-2-carboxamide]
[1]; 2.5 mM ATP
  IC50: 0.242 µM
[2]; Homo sapiens
  IC50: 0.1 to 1 µM

## O=C(NCCCCC1CCN(C(=O)c2cnc(C(F)(F)F)nc2)CC1)c1cc2ccncc2s1 [N-[4-(1-{[2-(trifluoromethyl)pyrimidin-5-yl]carbonyl}piperidin-4-yl)butyl]thieno[2,3-c]pyridine-2-carboxamide]
[1]; 2.5 mM ATP
  IC50: 0.158 µM
[2]; Homo sapiens
  IC50: 0.1 to 1 µM

## O=C(NCCCCC1CCN(S(=O)(=O)c2cccc(OC(F)(F)F)c2)CC1)c1cc2cnccc2[nH]1 [N-[4-(1-{[3-(trifluoromethoxy)benzene]sulfonyl}piperidin-4-yl)butyl]-1H-pyrrolo[3,2-c]pyridine-2-carboxamide]
[1]; […] ATP
  IC50: 0.0778 µM
[2]
  IC50: 0.0187 µM

## O=C(NCCCCC1CCN(C(=O)c2ccc(-n3cccn3)cc2)CC1)c1cc2cnccc2[nH]1 [N-[4-(1-{[4-(1H-pyrazol-1-yl)phenyl]carbonyl}piperidin-4-yl)butyl]-1H-pyrrolo[3,2-c]pyridine-2-carboxamide]
[1]; 2.5 mM ATP
  IC50: 0.0507 µM
[2]; Homo sapiens
  IC50: 0.0136 µM

## O=C(NCCCCC1CCN(C(=O)c2ccc(-n3cccn3)cc2)CC1)c1cc2ccncc2s1 [N-[4-(1-{[4-(1H-pyrazol-1-yl)phenyl]carbonyl}piperidin-4-yl)butyl]thieno[2,3-c]pyridine-2-carboxamide]
[1]; 2.5 mM ATP
  IC50: 0.0481 µM
[2]; Homo sapiens
  IC50: 0.1 to 1 µM

## O=C(NCCCCC1CCN(C(=O)c2ccc(OC(F)F)cc2)CC1)c1cc2cnccc2[nH]1 [N-[4-(1-{[4-(difluoromethoxy)phenyl]carbonyl}piperidin-4-yl)butyl]-1H-pyrrolo[3,2-c]pyridine-2-carboxamide]
[1]; 2.5 mM ATP
  IC50: 0.183 µM
[2]; Homo sapiens
  IC50: 0.0314 µM

## O=C(NCCCCC1CCN(C(=O)c2ccc(OC(F)F)cc2)CC1)c1ccc2nccn2c1 [N-[4-(1-{[4-(difluoromethoxy)phenyl]carbonyl}piperidin-4-yl)butyl]imidazo[1,2-a]pyridine-6-carboxamide]
[1]; 2.5 mM ATP
  IC50: 0.0427 µM
[2]; Homo sapiens
  IC50: 0.101 µM

## O=C(NCCCCC1CCN(C(=O)c2ccc(OC(F)F)cc2)CC1)c1cc2ccncc2s1 [N-[4-(1-{[4-(difluoromethoxy)phenyl]carbonyl}piperidin-4-yl)butyl]thieno[2,3-c]pyridine-2-carboxamide]
[1]; 2.5 mM ATP
  IC50: 0.0774 µM
[2]; Homo sapiens
  IC50: 0.1 to 1 µM
